Measured values from PubChem BioAssay AID248 (DTP/NCI, 2004).
Where “and” joins values, the source holds several entries; their conditions need not be identical. Identical values can stand only once. Inconclusive results and toxic doses are left out.

Test system: L1210 leukemia ip in BDF1 mice, survival T/C
Assay: NCI In Vivo Anticancer Drug Screen. Data for tumor model L1210 Leukemia (intraperitoneal) in B6D2F1 (BDF1) mice
Settings: endpoint: mean survival time, higher = longer survival
In short: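 In this screen, tumor-bearing mice given compound are compared to those given vehicle, and their survival values are reported as a treated-to-control quotient.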

[1] = dose: 30.0 mg/kg/injection, schedule: Q01DX Z (ip), vehicle: carboxymethylcellulose (CMC)
[2] = dose: 25.0 mg/kg/injection, schedule: Q01DX009 (ip), vehicle: saline with Tween-80
[3] = dose: 50.0 mg/kg/injection, schedule: Q01DX009 (ip), vehicle: saline with Tween-80
[4] = dose: 100.0 mg/kg/injection, schedule: Q01DX001 (ip), vehicle: Klucel (hydroxypropylcellulose) (HPC)
[5] = dose: 100.0 mg/kg/injection, schedule: Q04DX003 (ip), vehicle: Klucel (hydroxypropylcellulose) (HPC)
[6] = dose: 100.0 mg/kg/injection, schedule: Q04DX003 (ip), vehicle: saline with Tween-80
[7] = dose: 200.0 mg/kg/injection, schedule: Q01DX001 (ip), vehicle: Klucel (hydroxypropylcellulose) (HPC)
[8] = dose: 200.0 mg/kg/injection, schedule: Q04DX003 (ip), vehicle: Klucel (hydroxypropylcellulose) (HPC)
[9] = dose: 400.0 mg/kg/injection, schedule: Q01DX001 (ip), vehicle: Klucel (hydroxypropylcellulose) (HPC)
[10] = dose: 400.0 mg/kg/injection, schedule: Q04DX003 (ip), vehicle: Klucel (hydroxypropylcellulose) (HPC)
[11] = dose: 100.0 mg/kg/injection, schedule: Q01DX001 (ip), vehicle: saline
[12] = dose: 200.0 mg/kg/injection, schedule: Q01DX001 (ip), vehicle: saline
[13] = dose: 400.0 mg/kg/injection, schedule: Q01DX001 (ip), vehicle: saline
[14] = dose: 200.0 mg/kg/injection, schedule: Q04DX003 (ip), vehicle: saline with Tween-80
[15] = dose: 400.0 mg/kg/injection, schedule: Q04DX003 (ip), vehicle: saline with Tween-80

O=C(Nc1ccc(C2=NCCN2)cc1)C1CCC(C(=O)Nc2ccc(C3=NCCN3)cc2)CC1 (stereo unspecified)
T/C (dose: 0.46 mg/kg/injection, schedule: Q01DX Z (ip), vehicle: carboxymethylcellulose (CMC)): 103 % of control | T/C (dose: 0.93 mg/kg/injection, schedule: Q01DX Z (ip), vehicle: carboxymethylcellulose (CMC)): 112 % of control | T/C (dose: 3.75 mg/kg/injection, schedule: Q01DX Z (ip), vehicle: carboxymethylcellulose (CMC)): 152 % of control | T/C (dose: 11.0 mg/kg/injection, schedule: Q01DX015 (ip), vehicle: methylcellulose (MC)): 197 % of control | T/C (dose: 15.0 mg/kg/injection, schedule: Q01DX Z (ip), vehicle: carboxymethylcellulose (CMC)): 227 % of control | T/C (dose: 22.0 mg/kg/injection, schedule: Q01DX015 (ip), vehicle: methylcellulose (MC)): 262 % of control | T/C [1]: 250 % of control | T/C (dose: 31.0 mg/kg/injection, schedule: Q01DX015 (ip), vehicle: methylcellulose (MC)): 284 % of control | T/C (dose: 45.0 mg/kg/injection, schedule: Q01DX015 (ip), vehicle: methylcellulose (MC)): 335 % of control | T/C (dose: 60.0 mg/kg/injection, schedule: Q01DX Z (ip), vehicle: carboxymethylcellulose (CMC)): 173 % of control | T/C (dose: 62.0 mg/kg/injection, schedule: Q01DX015 (ip), vehicle: methylcellulose (MC)): 229 % of control | T/C (dose: 125.0 mg/kg/injection, schedule: Q01DX015 (ip), vehicle: methylcellulose (MC)): 201 % of control | T/C (dose: 125.0 mg/kg/injection, schedule: Q01DX Z (ip), vehicle: carboxymethylcellulose (CMC)): 102 % of control | T/C (dose: 250.0 mg/kg/injection, schedule: Q01DX001 (ip), vehicle: methylcellulose (MC)): 178 % of control | T/C (dose: 250.0 mg/kg/injection, schedule: Q01DX015 (ip), vehicle: methylcellulose (MC)): 160 % of control | T/C (dose: 750.0 mg/kg/injection, schedule: Q01DX001 (ip), vehicle: methylcellulose (MC)): 243 % of control | T/C (dose: 1500.0 mg/kg/injection, schedule: Q01DX001 (ip), vehicle: methylcellulose (MC)): 202 % of control and 239 % of control and 253 % of control

CC(C)C1CCC(NC(=O)Nc2ccccc2)CC1 (stereo unspecified)
T/C [2]: 93 % of control | T/C (dose: 25.0 mg/kg/injection, schedule: Q04DX003 (ip), vehicle: saline with Tween-80): 97 % of control | T/C [3]: 95 % of control | T/C (dose: 50.0 mg/kg/injection, schedule: Q04DX003 (ip), vehicle: saline with Tween-80): 101 % of control | T/C [4]: 111 % of control | T/C (dose: 100.0 mg/kg/injection, schedule: Q01DX009 (ip), vehicle: saline with Tween-80): 88 % of control | T/C [5]: 94 % of control | T/C [6]: 100 % of control and 106 % of control | T/C [7]: 101 % of control | T/C [8]: 101 % of control | T/C [9]: 103 % of control | T/C [10]: 94 % of control

CN1CCCCC1CCN1c2ccccc2Sc2ccc(Cl)cc21 (stereo unspecified)
T/C (dose: 3.12 mg/kg/injection, schedule: Q01DX009 (ip), vehicle: saline): 96 % of control | T/C (dose: 6.25 mg/kg/injection, schedule: Q01DX009 (ip), vehicle: saline): 97 % of control | T/C (dose: 12.5 mg/kg/injection, schedule: Q01DX009 (ip), vehicle: saline): 100 % of control | T/C (dose: 25.0 mg/kg/injection, schedule: Q01DX009 (ip), vehicle: saline): 97 % of control

CC(=O)N1CC(=O)NC1=S
T/C [4]: 115 % of control | T/C [7]: 107 % of control | T/C [9]: 95 % of control

COc1cc(-c2cc(OC)c(N=N/C(=N/Nc3ccc([N+](=O)[O-])cc3)c3ccc([N+](=O)[O-])cc3)cc2Cl)c(Cl)cc1N=N/C(=N\Nc1ccc([N+](=O)[O-])cc1)c1ccc([N+](=O)[O-])cc1
T/C (dose: 50.0 mg/kg/injection, schedule: Q01DX001 (ip), vehicle: saline): 103 % of control | T/C [11]: 94 % of control | T/C [12]: 103 % of control | T/C [13]: 94 % of control

NS(=O)(=O)c1ccc(NC(=O)Nc2cccc(CNC(=O)COc3ccc(Cl)cc3C(=O)O)c2)cc1
T/C [4]: 98 % of control | T/C [7]: 91 % of control | T/C [9]: 98 % of control

CC1CN1P(=O)(N1CCCCC1)N1CC1C (stereo unspecified)
T/C (dose: 11.0 mg/kg/injection, schedule: Q01DX Z (ip), vehicle: carboxymethylcellulose (CMC)): 97 % of control | T/C (dose: 11.0 mg/kg/injection, schedule: Q01DX Z (ip), vehicle: saline): 109 % of control | T/C (dose: 13.0 mg/kg/injection, schedule: Q01DX Z (ip), vehicle: carboxymethylcellulose (CMC)): 102 % of control | T/C (dose: 17.0 mg/kg/injection, schedule: Q01DX Z (ip), vehicle: carboxymethylcellulose (CMC)): 119 % of control | T/C (dose: 17.0 mg/kg/injection, schedule: Q01DX Z (ip), vehicle: saline): 116 % of control | T/C (dose: 20.0 mg/kg/injection, schedule: Q01DX Z (ip), vehicle: carboxymethylcellulose (CMC)): 102 % of control | T/C (dose: 25.0 mg/kg/injection, schedule: Q01DX Z (ip), vehicle: carboxymethylcellulose (CMC)): 104 % of control and 116 % of control | T/C (dose: 25.0 mg/kg/injection, schedule: Q01DX Z (ip), vehicle: saline): 104 % of control | T/C [1]: 105 % of control | T/C (dose: 38.0 mg/kg/injection, schedule: Q01DX Z (ip), vehicle: carboxymethylcellulose (CMC)): 115 % of control and 116 % of control | T/C (dose: 45.0 mg/kg/injection, schedule: Q01DX Z (ip), vehicle: carboxymethylcellulose (CMC)): 100 % of control and 115 % of control | T/C (dose: 57.0 mg/kg/injection, schedule: Q01DX Z (ip), vehicle: saline): 118 % of control | T/C (dose: 85.0 mg/kg/injection, schedule: Q01DX Z (ip), vehicle: carboxymethylcellulose (CMC)): 109 % of control | T/C (dose: 86.0 mg/kg/injection, schedule: Q01DX Z (ip), vehicle: saline): 102 % of control and 113 % of control

CC(=O)c1ccc(N=NC2C(=O)N(c3ccccc3)N=C2C)cc1 (stereo unspecified)
T/C [11]: 96 % of control | T/C [12]: 94 % of control | T/C [13]: 102 % of control

COc1cc2c(cc1OC)-c1cc3cc(OC)c(OC)cc3c(CCC(=O)O)[n+]1CC2 (tested in a mixture with another compound)
T/C (dose: 100.0 mg/kg/injection, schedule: Q04DX002 (ip), vehicle: saline): 117 % of control | T/C (dose: 200.0 mg/kg/injection, schedule: Q04DX002 (ip), vehicle: saline): 103 % of control | T/C (dose: 400.0 mg/kg/injection, schedule: Q04DX002 (ip), vehicle: saline): 109 % of control

Cc1ccc(S(=O)(=O)OCCOCCOS(=O)(=O)c2ccc(C)cc2)cc1
T/C [6]: 100 % of control | T/C [14]: 104 % of control | T/C [15]: 100 % of control

FCCSc1ncnc2nc[nH]c12
T/C (dose: 20.0 mg/kg/injection, schedule: Q04DX003 (ip), vehicle: saline with Tween-80): 113 % of control | T/C (dose: 29.5 mg/kg/injection, schedule: Q04DX003 (ip), vehicle: saline with Tween-80): 116 % of control | T/C [6]: 159 % of control

CS(=O)(=O)OCCCN(CCCOS(C)(=O)=O)c1ccc(C=Nc2ccc(-c3csc(COc4ccc(Br)cc4Br)n3)cc2)cc1
T/C [6]: 91 % of control | T/C [14]: 88 % of control | T/C [15]: 86 % of control

CC(C)C1C(C(=O)O)NC(=O)C1C(=O)O (stereo unspecified)
T/C (dose: 12.0 mg/kg/injection, schedule: Q01DX009 (ip), vehicle: saline with Tween-80): 106 % of control | T/C (dose: 25.0 mg/kg/injection, schedule: Q01DX009 (ip), vehicle: Klucel (hydroxypropylcellulose) (HPC)): 106 % of control | T/C [2]: 99 % of control | T/C [3]: 97 % of control | T/C (dose: 100.0 mg/kg/injection, schedule: Q01DX009 (ip), vehicle: Klucel (hydroxypropylcellulose) (HPC)): 108 % of control | T/C [5]: 96 % of control | T/C [8]: 98 % of control | T/C [10]: 95 % of control

Nc1ccc(Cl)cc1C(=O)c1ccccc1
T/C (dose: 25.0 mg/kg/injection, schedule: Q04DX002 (ip), vehicle: DMSO): 95 % of control | T/C (dose: 50.0 mg/kg/injection, schedule: Q04DX002 (ip), vehicle: DMSO): 89 % of control | T/C (dose: 100.0 mg/kg/injection, schedule: Q04DX002 (ip), vehicle: DMSO): 106 % of control and 88 % of control

CC1(c2ccsc2)NC(=O)NC1=O (stereo unspecified)
T/C [11]: 93 % of control | T/C [12]: 93 % of control | T/C [13]: 90 % of control

CCCOc1ccc(Nc2c3ccccc3nc3ccccc23)cc1
T/C [5]: 102 % of control | T/C [8]: 96 % of control

Nc1ncnc2c1ncn2C1OC(CO)C(O)C(O)C1O (stereo unspecified)
T/C [11]: 103 % of control [middle of 4 runs] | T/C [12]: 100 % of control [middle of 4 runs] | T/C [13]: 100 % of control [middle of 4 runs]
